Laboratory results reported in publication PMC5971037, “Synthesis and evaluation of antimicrobial, antitubercular and anticancer activities of 2-(1-benzoyl-1H-benzo[d]imidazol-2-ylthio)-N-substituted acetamides” (Chemistry Central Journal, 2018).
≈ marks a conversion by molar mass, not a printed value.

What was measured:
E. coli [1] = experiment: Tube dilution MIC; settings: Escherichia coli, 24 h, read-out: MIC E. coli
[2] = tested on: HCT116 (human colorectal) cell line; experiment: Sulforhodamine-B (SRB) cytotoxicity assay; type: cell-based; settings: HCT-116, read-out: IC50 HCT116
A. niger [3] = experiment: MFC by subculturing; type: cell-based; settings: Aspergillus niger, read-out: MFC A. niger
Procedure: (§1) The minimum bactericidal concentration (MBC) and minimum fungicidal concentration (MFC) of the synthesized benzimidazole derivatives was determined by subculturing 100 µl of culture from each tube that remained clear in MIC determination onto sterilized petri-plates containing fresh agar medium. The petri-plates were incubated and analyzed for microbial growth visually.

C. albicans [4] = experiment: MFC by subculturing; type: cell-based; settings: Candida albicans, read-out: MFC C. albicans
Procedure: as §1

A. niger [5] = experiment: microbe, parasite or virus in culture; settings: Aspergillus niger, 168 h, read-out: MIC A. niger
[6] = target: mycobacterial isocitrate lyase (Mycobacterium tuberculosis, UniProt P9WKK7); experiment: Mycobacterial isocitrate lyase (ICL) assay; type: biochemical, M. tuberculosis H37Rv; settings: read-out: Percent inhibition of enzyme, M. ICL activity
Procedure: The compounds found potent in in vivo evaluation were assayed for inhibition of mycobacterial enzymes viz., isocitrate lyase, pantothenate synthetase and chorismate mutase.
Isocitrate lyase activity was assayed according to the protocol reported by Dixon and Kornberg (glyoxylate phenyl hydrazone formation) at 10 μM of the compounds.

M. tuberculosis H37Rv [7] = experiment: MIC by microplate alamar blue assay; type: cell-based; settings: Mycobacterium tuberculosis, NA = no activity, read-out: MIC against M. tuberculosis H37Rv
B. subtilis [8] = experiment: Tube dilution MIC; settings: Bacillus subtilis, 24 h, read-out: MIC B. subtilis
S. aureus [9] = experiment: Tube dilution MIC; settings: Staphylococcus aureus, 24 h, read-out: MIC S. aureus
[10] = In vivo LD50, ED50 and toxic dose in mice models; settings: mouse, dose that killed 50% of the mice population within the group
Procedure: The LD50 and ED50 were determined for the active compounds in mice models infected with Mycobacterium H37Rv (Table 4). […] Thus, ED50 of 1.34 mg/kg was considered safe for each of the compounds. It was observed that this dose was effective and safe for mice in different groups before infecting the mice models with specific TB bacteria as no mortality of any single animal was recorded.
The LD50 (lethal dose) and ED50 (optimum/effective dose) doses were determined for the active compounds in mice models infected with Mycobacterium H37Rv via ethical permission no., NCFT/EC/16/2313 assigned to Collaborative Research Group (CRG), NCFT, New Delhi, India.

B. cereus [11] = experiment: Tube dilution MIC; settings: Bacillus cereus, 24 h, read-out: MIC B. cereus
[12] = tested on: M. tuberculosis H37Rv (NCFT/TB/537); experiment: Well diffusion susceptibility test (zone of inhibition); type: cell-based; settings: Mycobacterium tuberculosis, 672 h, read-out: Diameter of zone of inhibition against H37Rv (NCFT/TB/537), wells of 8 mm, 50 µg/ml test compound, 25 µg/ml standard drug, 4 weeks, NA = no activity
C. albicans [13] = experiment: microbe, parasite or virus in culture; settings: Candida albicans, 48 h, read-out: MIC C. albicans
S. typhi [14] = experiment: Tube dilution MIC; type: cell-based; settings: Salmonella enterica, 24 h, read-out: MIC S. typhi
B. subtilis [15] = experiment: MBC by subculturing; type: cell-based; settings: Bacillus subtilis, read-out: MBC B. subtilis
Procedure: as §1

S. aureus [16] = experiment: MBC by subculturing; type: cell-based; settings: Staphylococcus aureus
Procedure: as §1

B. cereus [17] = experiment: MBC by subculturing; type: cell-based; settings: Bacillus cereus, read-out: MBC B. cereus
Procedure: as §1

S. typhi [18] = experiment: MBC by subculturing; type: cell-based; settings: Salmonella enterica, read-out: MBC S. typhi
Procedure: as §1

E. coli [19] = experiment: MBC by subculturing; type: cell-based; settings: Escherichia coli
Procedure: as §1

M. tuberculosis H37Rv [20] = experiment: Minimum lethal concentration (MLC); type: cell-based; settings: Mycobacterium tuberculosis, NA = no activity, read-out: MLC against M. tuberculosis H37Rv
[21] = tested on: MCF7 (human breast cancer) cell line; experiment: Sulforhodamine-B (SRB) cytotoxicity assay; type: cell-based; settings: MCF7, read-out: IC50 MCF7

Sequence of mycobacterial isocitrate lyase (P9WKK7 whole entry): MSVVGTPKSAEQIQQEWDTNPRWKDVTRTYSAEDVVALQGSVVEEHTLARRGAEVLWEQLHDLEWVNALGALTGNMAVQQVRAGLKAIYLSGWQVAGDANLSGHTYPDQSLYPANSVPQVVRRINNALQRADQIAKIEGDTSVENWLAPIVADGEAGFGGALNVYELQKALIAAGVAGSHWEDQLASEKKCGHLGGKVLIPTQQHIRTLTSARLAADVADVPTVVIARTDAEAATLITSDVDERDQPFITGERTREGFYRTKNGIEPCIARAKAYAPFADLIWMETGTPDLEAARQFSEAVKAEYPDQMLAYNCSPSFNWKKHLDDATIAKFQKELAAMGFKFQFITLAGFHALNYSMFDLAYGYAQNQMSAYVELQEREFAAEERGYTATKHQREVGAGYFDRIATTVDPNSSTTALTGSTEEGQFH

| Structure (SMILES) | MIC (E. coli [1]) [µM] | IC50 [2] [µM] | MFC (A. niger [3]) [mg/L] | MFC (C. albicans [4]) [mg/L] | MIC (A. niger [5]) [µM] | inhibition at 10 µM [6] [%] | MIC (M. tuberculosis H37Rv [7]) [mg/L] | MIC (B. subtilis [8]) [µM] | MIC (S. aureus [9]) [µM] | LD50 [10] [mg/kg] | MIC (B. cereus [11]) [µM] | zone of inhibition at 50 µg/mL [12] [mm] | MIC (C. albicans [13]) [µM] | MIC (S. typhi [14]) [µM] | MBC (B. subtilis [15]) [mg/L] | MBC (S. aureus [16]) [mg/L] | MBC (B. cereus [17]) [mg/L] | MBC (S. typhi [18]) [mg/L] | MBC (E. coli [19]) [mg/L] | MBC (M. tuberculosis H37Rv [20]) [mg/L] | further results |
| --- | --- | --- | --- | --- | --- | --- | --- | --- | --- | --- | --- | --- | --- | --- | --- | --- | --- | --- | --- | --- | --- |
| O=C(CSc1nc2ccccc2n1C(=O)c1ccccc1)Nc1cc(Cl)ccc1Cl [Compound 6, 2-(1-Benzoyl-1H-benzo[d]imidazol-2-ylthio)-N-(2,5-dichlorophenyl)acetamide] | 27 (≈ 12.3 µg/mL) | 83.3 | > 50 | 50 (≈ 110 µM) | 27 (≈ 12.3 µg/mL) | 56.8 | 12.5 (≈ 27.4 µM) | 27 (≈ 12.3 µg/mL) | 27 (≈ 12.3 µg/mL) | 1.86 | 27 (≈ 12.3 µg/mL) | > 20 | 14 (≈ 6.39 µg/mL) | 27 (≈ 12.3 µg/mL) | > 50 | > 50 | > 50 | 25 (≈ 54.8 µM) | > 50 | 25 (≈ 54.8 µM) | IC50 [21]: 89.8 µM |
| O=C(CSc1nc2ccccc2n1C(=O)c1ccccc1)Nc1ccc(F)cc1 [Compound 3, 2-(1-Benzoyl-1H-benzo[d]imidazol-2-ylthio)-N-(4-fluorophenyl)acetamide] | 31 (≈ 12.6 µg/mL) | 197 | > 50 | 25 (≈ 61.7 µM) | 31 (≈ 12.6 µg/mL) | 52.6 | 12.5 (≈ 30.8 µM) | 31 (≈ 12.6 µg/mL) | 31 (≈ 12.6 µg/mL) | 1.87 | 31 (≈ 12.6 µg/mL) | > 20 | 15 (≈ 6.08 µg/mL) | 31 (≈ 12.6 µg/mL) | > 50 | > 50 | > 50 | > 50 | 50 (≈ 123 µM) | 25 (≈ 61.7 µM) | IC50 [21]: 24.7 µM |
| Cc1ccc(NC(=O)CSc2nc3ccccc3n2C(=O)c2ccccc2)cc1 [Compound 12, 2-(1-Benzoyl-1H-benzo[d]imidazol-2-ylthio)-N-p-tolylacetamide] | 31 (≈ 12.4 µg/mL) | 39.8 | > 50 | 25 (≈ 62.3 µM) | 31 (≈ 12.4 µg/mL) | 43.5 | 12.5 (≈ 31.1 µM) | 31 (≈ 12.4 µg/mL) | 31 (≈ 12.4 µg/mL) | 1.85 | 31 (≈ 12.4 µg/mL) | > 20 | 16 (≈ 6.42 µg/mL) | 31 (≈ 12.4 µg/mL) | > 50 | > 50 | > 50 | 50 (≈ 125 µM) | 50 (≈ 125 µM) | 25 (≈ 62.3 µM) | IC50 [21]: 124 µM |
| O=C(CSc1nc2ccccc2n1C(=O)c1ccccc1)Nc1ccccc1 [Compound 1] | 32 (≈ 12.4 µg/mL) | > 258 | > 50 | 50 (≈ 129 µM) | 32 (≈ 12.4 µg/mL) | 62.2 | 12.5 (≈ 32.3 µM) | 32 (≈ 12.4 µg/mL) | 32 (≈ 12.4 µg/mL) | 1.83 | 32 (≈ 12.4 µg/mL) | > 20 | 32 (≈ 12.4 µg/mL) | 32 (≈ 12.4 µg/mL) | > 50 | 50 (≈ 129 µM) | > 50 | 50 (≈ 129 µM) | 50 (≈ 129 µM) | 25 (≈ 64.5 µM) | IC50 [21]: 77.4 µM |
| O=C(CSc1nc2ccccc2n1C(=O)c1ccccc1)Nc1cccc([N+](=O)[O-])c1 [Compound 10, 2-(1-Benzoyl-1H-benzo[d]imidazol-2-ylthio)-N-(3-nitrophenyl)acetamide] | 29 (≈ 12.5 µg/mL) | 5.8 | > 50 | > 50 | 29 (≈ 12.5 µg/mL) | 61.2 | 12.5 (≈ 28.9 µM) | 29 (≈ 12.5 µg/mL) | 29 (≈ 12.5 µg/mL) | 1.83 | 29 (≈ 12.5 µg/mL) | > 20 | 15 (≈ 6.49 µg/mL) | 29 (≈ 12.5 µg/mL) | 50 (≈ 116 µM) | 50 (≈ 116 µM) | > 50 | 50 (≈ 116 µM) | > 50 | 25 (≈ 57.8 µM) | IC50 [21]: 78.6 µM |
